From PubChem BioAssay AID1996
In brackets after ≈: the same amount, converted by molar mass.

Conditions: buffer; pH 7.4; 200.0 µM

Row | SMILES | solubility kinetic [µg/mL]
1 | COc1ccc(C2C(C#N)=C(N)Oc3cc(O)ccc32)cc1Cl (stereo unspecified) | 43.5 (≈ 132 µM)
2 | O=C(Cc1ccc([N+](=O)[O-])cc1)Nc1nccs1 | 4.8 (≈ 18.2 µM)
3 | CCc1ccc(NC(=O)COC(=O)c2cccs2)cc1 | 2.8 (≈ 9.68 µM)
4 | COc1ccccc1CC(=O)NC1CCN(Cc2ccccc2)CC1 | > 50.8
5 | CC1(C)C(C(=O)N2CCN(C(=O)c3ccccc3)CC2)C1(C)C | > 47.2
6 | COc1ccc2cc(Br)ccc2c1CC(=O)N1CCCC1 | 3.2 (≈ 9.19 µM)
7 | Cc1cc(C)cc(NC2=NCCCS2)c1 | 32.1 (≈ 146 µM)
8 | O=C1NC2(CCCCC2)C(=O)N1Cc1cc(=O)n2ccsc2n1 | 44.7 (≈ 134 µM)
9 | Cc1csc(NC(=O)CSc2ccc([N+](=O)[O-])cn2)n1 | 33.8 (≈ 109 µM)
10 | O=[N+]([O-])C1=CC=C2C(=NC3(CCCCC3)N2O)C1=NCCc1ccccc1 | 1.4 (≈ 3.82 µM)
11 | Cc1ccc2cc(NC(=O)c3ccccc3C)ccc2n1 | 37.4 (≈ 135 µM)
12 | CC1CCC2(CC1)NC(=O)N(CC(=O)Nc1ccc(C(N)=O)cc1)C2=O (stereo unspecified) | > 53.8
13 | O=C1Cc2ccccc2C(=O)N1c1ccc(F)cc1Cl | 37.3 (≈ 129 µM)
14 | COc1cccc(NC(=O)N2CCCC2C(=O)NCc2ccco2)c1 (stereo unspecified) | 47.6 (≈ 139 µM)
15 | CCSc1nc2sc3c(c2c(=O)[nH]1)CC(C)(C)OC3 | 3.1 (≈ 10.5 µM)
16 | CC1CCN(C(=O)c2ccc(S(=O)(=O)N3CCCCCC3)cc2)CC1 | 26 (≈ 71.3 µM)
17 | CN(CCO)c1cc(N(C)CCO)c([N+](=O)[O-])cc1[N+](=O)[O-] | 42.1 (≈ 134 µM)
18 | COC(=O)Cn1cnc2scc(-c3ccc(C)c(C)c3)c2c1=O | 33.7 (≈ 103 µM)
19 | O=C(NCCCn1ccnc1)Nc1ccc2c(c1)OCO2 | > 43.2
20 | O=C(Nc1ccc(S(=O)(=O)N2CCOCC2)cc1)C1CC1 | > 46.6
21 | Fc1ccc2nc(N3CCCC3)sc2c1 | 15.6 (≈ 70.2 µM)
22 | CN(c1ccccc1)c1nc(N)c([N+](=O)[O-])c(NCCO)n1 | 42.9 (≈ 141 µM)
23 | COc1cccc(C(=O)Nc2cccc3ccccc23)c1OC | 14.5 (≈ 47.2 µM)
24 | CC(NC(=O)Cc1ccc(Br)cc1)c1ccccc1 (stereo unspecified) | 9.7 (≈ 30.5 µM)
25 | Cc1cccc(-n2ccnc2CN2CCN(C(C)C)C(CCO)C2)c1 (stereo unspecified) | 49.7 (≈ 145 µM)

Row | SMILES | solubility kinetic [µg/mL]
26 | Cc1ccc(C(=O)N2CCN(C34CC5CC(CC(C5)C3)C4)CC2)o1 | > 49.3
27 | Cc1cc([N+](=O)[O-])cc2c1NC(=O)C2(O)N1CCCC(C)C1 (stereo unspecified) | 28.3 (≈ 92.7 µM)
28 | Cc1ccc(NC(=O)CNC(=O)COc2ccccc2)nc1 | 14.9 (≈ 49.8 µM)
29 | COc1cccc(C(=O)NCCCNC(=O)c2ccco2)c1 | 40.8 (≈ 135 µM)
30 | O=C(c1cc2cc(F)ccc2[nH]1)N1CCC2(CC1)OCCO2 | 20.2 (≈ 66.4 µM)
31 | O=C(NCc1ccc(Cl)cc1)C1CCCO1 (stereo unspecified) | > 36
32 | Cn1c(/C=C/c2ccc(Cl)cc2)nc2ccccc2c1=O | < 0.3
33 | CC(NC(=O)c1ccco1)C(=O)OCc1cccc(C(F)(F)F)c1 (stereo unspecified) | > 51.2
34 | S=C1N[C@H]2CCCC[C@@H]2N1 | 20.8 (≈ 133 µM)
35 | COc1ccc(C(=O)N=c2sc3ccccc3n2C)cc1OC | < 0.4
36 | O=C1NC(c2ccc(Br)cc2)Oc2ccccc21 (stereo unspecified) | 2.1 (≈ 6.9 µM)
37 | Cc1ccc(S(=O)(=O)NCCNc2ccc(Br)c(C)c2)cc1 | 0.6 (≈ 1.57 µM)
38 | C=C(C)C(=O)Nc1cccnc1Oc1ccc(F)cc1F | 40.8 (≈ 141 µM)
39 | CC(C)(C)c1cc(C(=O)N2CCc3ccccc3C2)ccn1 | > 44.2
40 | COc1ccc(CNS(=O)(=O)NCc2ccccc2F)cc1 | 22.3 (≈ 68.7 µM)
41 | CCOC(=O)N1CCN(C(=O)c2cc3cc(C)ccc3[nH]2)CC1 | 41.6 (≈ 132 µM)
42 | Cc1ccc(/C=C(\C#N)C(=O)N2CCCC2)c(C)c1 | > 38.1
43 | CN(C)C1(CNC(=O)Cc2ccccc2F)CCCCC1 | 42.2 (≈ 144 µM)
44 | COc1ccc2cc(C(=O)C3CCCN(Cc4cccc(C)n4)C3)ccc2c1 (stereo unspecified) | 37.7 (≈ 101 µM)
45 | Cl.Nc1cnccc1Oc1cccc(C(F)(F)F)c1 | > 43.6
46 | CC(C)CCNC(=O)C(=O)NCc1ccccc1 | 2.6 (≈ 10.5 µM)
47 | CCc1nc2ccccc2c(C(=O)OCC(=O)N(C)Cc2ccccc2)c1C | 4.9 (≈ 13 µM)
48 | O=C(Nc1cccnc1Cl)c1cc(-c2ccc(O)cc2)on1 | < 0.2
49 | Cc1noc(C)c1-c1nc(CS(=O)(=O)c2ccc(Cl)cc2)no1 | 3.8 (≈ 10.7 µM)
50 | CC(C)(C)NC(=S)Nc1cccc(C(F)(F)F)c1 | 17.1 (≈ 61.9 µM)

Row | SMILES | solubility kinetic [µg/mL]
51 | Cn1c(-c2nonc2N)nc2ccccc21 | 4.3 (≈ 20 µM)
52 | Cc1cc(C)n(CC(=O)NCCC2=CCCCC2)n1 | > 39.2
53 | Cc1ccc(CC(=O)NCCCn2ccnc2)cc1 | > 38.6
54 | CCN(CC)CCOCCOC(=O)C(CC)(CC)c1ccccc1 | 47.7 (≈ 142 µM)
55 | O=C(O)c1cc([N+](=O)[O-])c(NCCC2=CCCCC2)c([N+](=O)[O-])c1 | > 50.3
56 | Nc1ccccc1SC1CC(=O)N(c2ccc3c(c2)OCO3)C1=O (stereo unspecified) | < 0.4
57 | COc1cc(C(F)(F)F)ccc1C(=O)NCCc1ccco1 | 42.9 (≈ 137 µM)
58 | CCN(CC)C(=O)C1CCCN(Cc2nc(-c3cnccn3)no2)C1 (stereo unspecified) | 40.4 (≈ 117 µM)
59 | CCOc1ccc(-n2c(C)c(C(C)=O)c3cc(OC(C)=O)ccc32)cc1 | < 0.8
60 | COc1ccc(C(=O)Nc2ccc3c(c2)OCCO3)cc1[N+](=O)[O-] | < 0.4
61 | COC(=O)c1ccc(COc2ncnc3sccc23)cc1 | 17 (≈ 56.6 µM)
62 | O=C(Nc1cccc(Cl)c1)C1CCN(C(=O)c2cccs2)CC1 | 48.4 (≈ 139 µM)
63 | COc1cccc(OC)c1/C=C/C(=O)NC1CCCCC1 | 5.8 (≈ 20 µM)
64 | Cn1cc(C=O)c2ccccc21 | > 23.9
65 | COC(=O)[C@@H](N)CCCN=C(N)N[N+](=O)[O-].Cl | > 40.5
66 | CCOC(=O)CN1C(=O)S/C(=C/c2ccc(C)o2)C1=O | 29.2 (≈ 98.9 µM)
67 | O=C(OCC(=O)N1CCOCC1)c1cccc(F)c1 | > 40.1
68 | O=C(Nc1ccc(NC(=O)c2cccs2)cc1)c1ccccc1 | < 0.3
69 | COc1ccc(S(=O)(=O)NC2CCc3ccccc32)cc1OC (stereo unspecified) | > 50
70 | COc1cc(/C=C/C(=O)OCC(=O)N2CCCc3ccccc32)ccc1O | 33.1 (≈ 90.1 µM)
71 | O=C(Cc1ccc([N+](=O)[O-])cc1)OCc1c(F)cccc1Cl | < 0.7
72 | COc1ccc(NC(=O)CNC(=O)Cc2ccccc2)cc1OC | > 49.3
73 | COc1ccc(C2(C)NC(=O)N(CC(=O)NC3CC3)C2=O)cc1 (stereo unspecified) | 43.3 (≈ 136 µM)
74 | O=[N+]([O-])c1ccc2nc(-c3ccccc3)oc2c1 | 0.4 (≈ 1.67 µM)
75 | CN(CC(=O)Nc1ccccc1C(=O)Nc1ccccc1)C1CCCCC1 | 2.4 (≈ 6.57 µM)

Row | SMILES | solubility kinetic [µg/mL]
76 | COC(=O)c1nc[nH]c1C(=O)OC | > 27.6
77 | Cc1ccc(CSCC(=O)NCc2ccc3c(c2)OCO3)cc1 | 11.5 (≈ 34.9 µM)
78 | Cc1cc(=O)[nH]c(SCC(=O)N2CC3(C)CC2CC(C)(C)C3)n1 (stereo unspecified) | > 50.3
79 | O=C(NCc1ccccc1)c1cc2ccccc2oc1=O | 2.7 (≈ 9.67 µM)
80 | COc1ccc(OCC(=O)OCC(=O)NC2CC2)cc1 | > 41.9
81 | COc1ccc(C2NC(=O)CCC2[N+](=O)[O-])cc1OC (stereo unspecified) | > 42
82 | CCN(CC)CCNC(=O)Cn1ncc2ccccc2c1=O | > 45.4
83 | COC(=O)Cn1c(C)nc([N+](=O)[O-])c1Br | 31.9 (≈ 115 µM)
84 | O=C(COC(=O)C12CC3CC(CC(Cl)(C3)C1)C2)N1CCCCC1 | 27.5 (≈ 80.9 µM)
85 | Cc1nonc1CC(=O)N1CCCC(C(=O)c2ccc(Cl)cc2)C1 (stereo unspecified) | 48.2 (≈ 139 µM)
86 | CN1C2=NCCN2C(=O)c2cc(Cl)ccc21 | 30.9 (≈ 131 µM)
87 | OCCNc1c2ccccc2nc2ccccc12 | 33.7 (≈ 141 µM)
88 | O=Cc1cn(CC(=O)N2CCCCCC2)c2ccccc12 | > 42.7
89 | O=C(NC1CCCCC1)c1c2c(nc3ccccc13)CCC2 | 25.9 (≈ 88 µM)
90 | O=C(COC(=O)CC1CC2CCC1C2)NCc1ccccc1 (stereo unspecified) | > 45.2
91 | O=C(O)c1ccccc1N1C(=O)c2cccc3cccc(c23)C1=O | > 47.6
92 | O=c1cc(O)nc[nH]1 | > 16.8
93 | CC(C)N1CCN(Cc2cc3ccccc3[nH]2)CC1CCO (stereo unspecified) | > 45.2
94 | Cl.NCCCCCC(=O)Nc1ccncc1 | > 36.6
95 | COC(=O)c1ccc(/C=N/OCC(=O)NCc2ccc(F)cc2)cc1 | 10.3 (≈ 29.9 µM)
96 | C=CCOc1ccccc1CN1CCCN(C)CC1 | 27.8 (≈ 107 µM)
97 | COc1ccc(CCC(=O)N2CCN(c3cccc(C)c3C)CC2)cc1 | 17.3 (≈ 49.1 µM)
98 | COCCNC(=O)C(=O)NNC(=O)CCc1ccccc1 | > 44
99 | O=C(COc1ccccc1[N+](=O)[O-])NCC1(N2CCOCC2)CCCCC1 | > 56.6
100 | Cc1c(F)cccc1NC(=O)CCCCCC1NC(=O)NC1C (stereo unspecified) | 46.7 (≈ 145 µM)

Row | SMILES | solubility kinetic [µg/mL]
101 | N#Cc1nc(-c2cccc(Cl)c2)oc1N1CCC(C(N)=O)CC1 | 1.8 (≈ 5.44 µM)
102 | O=C(CCc1c[nH]c2ccccc12)Nc1ncccc1O | > 42.2
103 | CC(=O)NCCc1nc2cc(NC(=O)Nc3ccccc3)ccc2n1C | > 52.7
104 | FC(F)(F)Oc1ccc(NC2=NCCCS2)cc1 | 41.4 (≈ 150 µM)
105 | Cc1cccc(OC(=O)c2cccnc2)c1 | 12.6 (≈ 59.1 µM)
106 | COc1ccccc1Cn1c(CO)nc2ccccc21 | 37.4 (≈ 139 µM)
107 | O=C(CC1C(=O)NCCN1C(=O)Nc1ccccc1)Nc1ccc(F)cc1 (stereo unspecified) | 52.2 (≈ 141 µM)
108 | O=C(CC12CC3CC(CC(C3)C1)C2)Nc1ccc(C(=O)O)cc1 | > 47
109 | CCOc1cc(-c2nc3ccccc3s2)ccc1O | 1.1 (≈ 4.05 µM)
110 | Cc1cccc(NC(=O)CCN2CC(C)CC(C)C2)c1.Cl (stereo unspecified) | > 46.6
111 | Cc1ccc(SCC(=O)N=C2NC(=O)CS2)cc1 | 35.9 (≈ 128 µM)
112 | CCC(=O)NCCc1nc2cc(NC(=O)c3ccco3)ccc2n1C | 48 (≈ 141 µM)
113 | Nc1nc(Nc2ccc(Cl)cc2)nc(NCCO)c1[N+](=O)[O-] | 3.1 (≈ 9.55 µM)
114 | CCCCn1c(N)c(N(C)C(=O)C2CC(=O)N(Cc3ccco3)C2)c(=O)[nH]c1=O (stereo unspecified) | > 60.5
115 | COCC(=O)Nc1ccc2c(c1)OCC(=O)N2Cc1ccc(C)cc1 | 20.9 (≈ 61.4 µM)
116 | COc1ccc(OCC(=O)Nc2ccc3c(c2)n(C)c(=O)n3C)cc1 | 48.2 (≈ 141 µM)
117 | CN(Cc1c(F)cccc1Cl)C(=O)c1cnc2ccccc2n1 | 38.3 (≈ 116 µM)
118 | CC1(C)CC(=O)c2ccc(OCc3ccc([N+](=O)[O-])cc3)cc2O1 | < 0.7
119 | Cc1[nH]c(=O)[nH]c(=O)c1/C=C/C(=O)O | > 29.4
120 | O=C(NCc1cccs1)c1cc(-c2ccc(O)cc2)on1 | 1.7 (≈ 5.66 µM)
121 | COc1cc(C#N)c(NC(=O)CN2CCC(C(N)=O)CC2)cc1OC | > 52
